# Test results reported in ChEMBL document CHEMBL5614375, “PepExplainer: An explainable deep learning model for selection-based macrocyclic peptide bioactivity prediction and optimization” (Eur J Med Chem, 2024).
# Bridge positions count the residues as written; N and C are the ends. Peptide text beside a SMILES is read from it.
# Target: T1, IL17-RE-IL-17C (Homo sapiens, UniProt Q8NFR9+Q9P0M4)
# T1 sequence (Q9P0M4 whole entry): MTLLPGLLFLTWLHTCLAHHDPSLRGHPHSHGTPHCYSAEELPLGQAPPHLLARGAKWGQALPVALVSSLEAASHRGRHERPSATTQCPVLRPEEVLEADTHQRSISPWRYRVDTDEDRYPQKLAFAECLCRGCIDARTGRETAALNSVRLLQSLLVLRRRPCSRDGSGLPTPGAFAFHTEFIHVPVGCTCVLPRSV
# T1 sequence (Q8NFR9 whole entry): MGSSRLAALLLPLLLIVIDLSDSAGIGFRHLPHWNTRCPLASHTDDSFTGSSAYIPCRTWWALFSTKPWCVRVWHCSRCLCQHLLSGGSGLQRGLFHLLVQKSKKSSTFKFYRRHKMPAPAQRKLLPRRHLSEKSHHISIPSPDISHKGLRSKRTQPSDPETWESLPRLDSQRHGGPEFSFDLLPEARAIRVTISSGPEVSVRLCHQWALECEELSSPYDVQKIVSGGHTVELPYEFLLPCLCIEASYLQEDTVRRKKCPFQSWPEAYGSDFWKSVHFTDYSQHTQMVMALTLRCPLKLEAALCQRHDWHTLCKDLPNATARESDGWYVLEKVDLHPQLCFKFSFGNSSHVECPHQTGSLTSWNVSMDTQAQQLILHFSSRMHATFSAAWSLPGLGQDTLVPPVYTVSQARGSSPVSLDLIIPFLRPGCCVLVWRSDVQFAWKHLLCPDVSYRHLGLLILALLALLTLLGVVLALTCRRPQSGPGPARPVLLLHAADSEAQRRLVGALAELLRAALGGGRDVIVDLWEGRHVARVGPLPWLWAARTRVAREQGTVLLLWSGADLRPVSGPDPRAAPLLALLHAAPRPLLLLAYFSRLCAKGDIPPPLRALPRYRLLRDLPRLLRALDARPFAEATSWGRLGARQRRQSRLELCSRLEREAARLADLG
# Assay: Inhibition of interleukin-17RE/biotinylated IL-17C protein-protein interaction (unknown origin) incubated for 1 hrs by competitive ELISA
# Type: protein-complex assay
row,IC50 [nM],SMILES
1,> 30000,CC[C@H](C)[C@@H]1NC(=O)[C@H](CCCNC(=N)N)NC(=O)[C@H](Cc2ccc(O)cc2)NC(=O)[C@H](Cc2ccc(O)cc2)NC(=O)[C@H](CCC(N)=O)NC(=O)[C@H](Cc2c[nH]cn2)NC(=O)[C@H](Cc2ccc(O)cc2)NC(=O)CSC[C@@H](C(=O)NCC(N)=O)NC(=O)[C@H](C(C)C)NC(=O)[C@H](CC(C)C)NC(=O)[C@H](CCC(=O)O)NC(=O)CNC(=O)[C@H](Cc2ccc(O)cc2)NC(=O)[C@H](CC(C)C)NC1=O ({CH2CO}-YHQYYRILYGELVCG-NH2; thioether N-14)
2,108,CC[C@H](C)[C@@H]1NC(=O)[C@H](CCCNC(=N)N)NC(=O)[C@H](Cc2ccc(O)cc2)NC(=O)[C@H](Cc2ccc(O)cc2)NC(=O)[C@H](CCCNC(=N)N)NC(=O)[C@H](Cc2c[nH]cn2)NC(=O)[C@H](Cc2ccc(O)cc2)NC(=O)CSC[C@@H](C(=O)NCC(N)=O)NC(=O)CNC(=O)[C@H](CC(C)C)NC(=O)[C@H](CCC(=O)O)NC(=O)CNC(=O)[C@H](Cc2ccc(O)cc2)NC(=O)[C@H](CC(C)C)NC1=O ({CH2CO}-YHRYYRILYGELGCG-NH2; thioether N-14)
3,119,CC[C@H](C)[C@@H]1NC(=O)[C@H](CCCNC(=N)N)NC(=O)[C@H](Cc2ccc(O)cc2)NC(=O)[C@H](Cc2ccc(O)cc2)NC(=O)[C@H](Cc2ccc(O)cc2)NC(=O)[C@H](Cc2c[nH]cn2)NC(=O)[C@H](Cc2ccc(O)cc2)NC(=O)CSC[C@@H](C(=O)NCC(N)=O)NC(=O)CNC(=O)[C@H](CC(C)C)NC(=O)[C@H](CCC(=O)O)NC(=O)CNC(=O)[C@H](Cc2ccc(O)cc2)NC(=O)[C@H](CC(C)C)NC1=O ({CH2CO}-YHYYYRILYGELGCG-NH2; thioether N-14)
4,> 30000,CC(C)C[C@@H]1NC(=O)[C@H](CC(=O)O)NC(=O)CNC(=O)[C@H](Cc2ccc(O)cc2)NC(=O)[C@H](CC(C)C)NC(=O)[C@H](CO)NC(=O)[C@H](CCCNC(=N)N)NC(=O)[C@H](Cc2ccc(O)cc2)NC(=O)[C@H](Cc2ccc(O)cc2)NC(=O)[C@H](Cc2c[nH]cn2)NC(=O)[C@H](CCC(N)=O)NC(=O)[C@H](Cc2ccc(O)cc2)NC(=O)CSC[C@@H](C(=O)NCC(N)=O)NC(=O)CNC1=O ({CH2CO}-YQHYYRSLYGDLGCG-NH2; thioether N-14)
